Measurements taken from the supplement of paper PMC11061612.

Legend:
[1] = tested on: NCI-H1299 (Non-Small Cell Lung Carcinoma); assay: Bliss excess, mean over the matrix (fraction); higher = more synergy
Procedure, shortened: (§1)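 After 24 hours at 37°C and 5% CO2 in 1536-well plates, cells in DMEM/F12 or RPMI plus 10% FBS received two-drug dose matrices for 72 hours. Viability came from CellTiter-Glo 2.0 luminescence and was scaled as inhibition, anchored at 0 by vehicle wells and at 1 by blank wells. Combination Emax is taken as the second-highest inhibition in the matrix, and Bliss excess as the observed combination effect less EA + EB − EA·EB, with EA and EB the single-agent effects.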

[2] = tested on: KARPAS-620 (Plasma Cell Myeloma); assay: as above
Procedure, shortened: as §1

[3] = tested on: KARPAS-1106P (B-Cell Non-Hodgkin's Lymphoma); assay: as above
Procedure, shortened: as §1

[4] = tested on: U-266 (Plasma Cell Myeloma); assay: as above
Procedure, shortened: as §1

SN12C (Kidney Carcinoma) [5] = assay: as above
Procedure, shortened: as §1

[6] = tested on: IHH-4 (Thyroid Gland Carcinoma); assay: as above
Procedure, shortened: as §1

[7] = tested on: TE-5 (Esophageal Squamous Cell Carcinoma); assay: as above
Procedure, shortened: as §1

[8] = tested on: LS-513 (Colorectal Carcinoma); assay: combination Emax (second highest fraction inhibited in the dose matrix, 72 h); higher = more inhibition; extreme values may be limits of the assay
Procedure, shortened: as §1

[9] = tested on: DB (B-Cell Non-Hodgkin's Lymphoma); assay: as above
Procedure, shortened: as §1

[10] = tested on: OCI-AML2 (Acute Myeloid Leukemia); assay: as above
Procedure, shortened: as §1

NCI-H2595 (Mesothelioma) = assay: as above
Procedure, shortened: as §1

[11] = tested on: KARPAS-620 (Plasma Cell Myeloma); assay: as above
Procedure, shortened: as §1

[12] = tested on: SW1990 (Pancreatic Carcinoma); assay: as above
Procedure, shortened: as §1

[13] = tested on: SW1783 (Low Grade Glioma); assay: as above
Procedure, shortened: as §1

[14] = tested on: KARPAS-1106P (B-Cell Non-Hodgkin's Lymphoma); assay: as above
Procedure, shortened: as §1

[15] = tested on: NCI-H211 (Small Cell Lung Carcinoma); assay: as above
Procedure, shortened: as §1

[16] = tested on: G-292-Clone-A141B1 (Osteosarcoma); assay: as above
Procedure, shortened: as §1

SK-N-FI (Neuroblastoma) = assay: as above
Procedure, shortened: as §1

SN12C (Kidney Carcinoma) [17] = assay: as above
Procedure, shortened: as §1

[18] = tested on: TE-5 (Esophageal Squamous Cell Carcinoma); assay: as above
Procedure, shortened: as §1
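Wherever Bliss excess, mean over the matrix is given: after 72 h of two-drug dosing.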

| Structure (SMILES) | Bliss excess [1] | Bliss excess [2] | Bliss excess [3] | Bliss excess [4] | Bliss excess (SN12C (Kidney Carcinoma) [5]) | Bliss excess [6] | Bliss excess [7] | combination Emax [8] | combination Emax [9] | combination Emax [10] | combination Emax (NCI-H2595 (Mesothelioma)) | combination Emax [11] | combination Emax [12] | combination Emax [13] | combination Emax [14] | combination Emax [15] | combination Emax [16] | combination Emax (SK-N-FI (Neuroblastoma)) | combination Emax (SN12C (Kidney Carcinoma) [17]) | combination Emax [18] |
| --- | --- | --- | --- | --- | --- | --- | --- | --- | --- | --- | --- | --- | --- | --- | --- | --- | --- | --- | --- | --- |
| CS(=O)(=O)CCNCc1ccc(-c2ccc3ncnc(Nc4ccc(OCc5cccc(F)c5)c(Cl)c4)c3c2)o1 [Lapatinib] + Cn1cnc2c(F)c(Nc3ccc(Br)cc3Cl)c(C(=O)NOCCO)cc21 [Selumetinib] (first compound max 10 µM, 7x7, partner max 10 µM) | 0.0085 | 0.0746 | 0.0436 | 0.0347 | -0.0375 | -0.0136 | -0.0241 | 0.949 | 0.63 | 1 | 0.25 | 0.72 | 0.465 | 0.216 | 0.617 | 0.876 | 0.192 | 0.582 | 0.28 | 0.369 |
| O=C(c1cc(Cc2n[nH]c(=O)c3ccccc23)ccc1F)N1CCN(C(=O)C2CC2)CC1 [Olaparib] + CN(CC[C@H](CSC1=CC=CC=C1)NC2=C(C=C(C=C2)S(=O)(=O)NC(=O)C3=CC=C(C=C3)N4CCC(CC4)[C@H](C5=CC=CC=C5C6=CC=C(C=C6)Cl)O)S(=O)(=O)C(F)(F)F)CCO [AZD4320] (first compound max 10 µM, 7x7, partner max 1 µM) | -0.0463 | 0.0017 | -0.035 | -0.0187 | -0.0401 | -0.0368 | -0.0436 | 0.452 | 0.923 | 1 | 0.228 | 1 | 0.328 | 0.289 | 0.498 | 1 | 0.419 | 0.144 | 0.18 | 0.238 |
| Cc1cc2ncnn2cc1Nc1ncc2c(n1)n(C1CCOCC1)c(=O)n2C [AZD7648] + COc1cc([C@@H]2c3cc4c(cc3[C@@H](O[C@@H]3O[C@@H]5CO[C@@H](C)O[C@H]5[C@H](O)[C@H]3O)[C@H]3COC(=O)[C@H]23)OCO4)cc(OC)c1O [Etoposide] (first compound max 10 µM, 7x7, partner max 10 µM) | 0.113 | 0.0051 | 0.0551 | -0.0446 | 0.0424 | 0.185 | -0.0089 | 0.662 | 0.907 | 1 | 0.446 | 0.786 | 0.337 | 0.706 | 0.781 | 0.968 | 0.321 | 0.368 | 0.641 | 0.668 |
| CS(=O)(=O)CCNCc1ccc(-c2ccc3ncnc(Nc4ccc(OCc5cccc(F)c5)c(Cl)c4)c3c2)o1 [Lapatinib] + NC1(c2ccc(-c3nc4ccn5c(=O)[nH]nc5c4cc3-c3ccccc3)cc2)CCC1 [MK-2206] (first compound max 10 µM, 7x7, partner max 10 µM) | 0.0027 | 0.032 | -0.0022 | -0.016 | -0.0236 | 0.0087 | 0.0735 | 0.951 | 0.944 | 0.912 | 0.228 | 0.928 | 0.256 | 0.395 | 0.666 | 0.944 | 0.468 | 0.461 | 0.238 | 0.728 |
| Cc1c2c(nn1C)CSCc1cc(n(C)n1)CSc1cc(c3ccccc3c1)OCCCc1c(C(=O)O)n(C)c3c-2c(Cl)ccc13 [AZD5991] + CC(=O)O[C@H]1C(=O)[C@@]2(C)[C@H]([C@H](OC(=O)c3ccccc3)[C@]3(O)C[C@H](OC(=O)[C@H](O)[C@@H](NC(=O)c4ccccc4)c4ccccc4)C(C)=C1C3(C)C)[C@]1(OC(C)=O)CO[C@@H]1C[C@@H]2O [Paclitaxel] (first compound max 1 µM, 7x7, partner max 3 µM) | -0.0453 | -0.0174 | 0.132 | -0.0074 | 0.0104 | -0.0341 | -0.0112 | 0.893 | 1 | 1 | 0.703 | 1 | 0.496 | 0.706 | 0.951 | 1 | 0.398 | 0.621 | 0.44 | 0.699 |
| C[C@@H](Oc1cc(-c2cnn(C3CCNCC3)c2)cnc1N)c1c(Cl)ccc(F)c1Cl [Crizotinib] + CC1=C(C(=CC=C1)Cl)NC(=O)C2=CN=C(S2)NC3=CC(=NC(=N3)C)N4CCN(CC4)CCO [Dasatinib] (first compound max 10 µM, 7x7, partner max 2 µM) | 0.123 | 0.0032 | -0.026 | -0.0102 | -0.0384 | 0.0456 | 0.0287 | 0.978 | 0.711 | 0.826 | 0.628 | 0.835 | 0.255 | 0.784 | 0.954 | 0.964 | 0.762 | 0.422 | 0.231 | 0.56 |
| C[C@@H]1COCCN1c1cc(C2([S@](C)(=N)=O)CC2)nc(-c2ccnc3[nH]ccc23)n1 [AZD6738] + Nc1ccn([C@@H]2O[C@H](CO)[C@@H](O)C2(F)F)c(=O)n1 [Gemcitabine] (first compound max 10 µM, 7x7, partner max 0.3 µM) | 0.0963 | 0.135 | 0.0614 | 0.057 | 0.0577 | 0.0816 | -0.0102 | 0.824 | 0.913 | 1 | 0.374 | 0.763 | 0.463 | 0.755 | 0.926 | 0.973 | 0.413 | 0.789 | 0.779 | 0.666 |
| N#Cc1cnc(Nc2cc(NC[C@H]3CNCCO3)c(C(F)(F)F)cn2)cn1 [SRA737] + Nc1ccn([C@@H]2O[C@H](CO)[C@@H](O)C2(F)F)c(=O)n1 [Gemcitabine] (first compound max 10 µM, 7x7, partner max 0.3 µM) | 0.0831 | 0.151 | 0.0126 | -0.0101 | 0.0884 | 0.0649 | -0.0151 | 0.801 | 0.931 | 1 | 0.397 | 0.801 | 0.505 | 0.729 | 0.951 | 0.977 | 0.317 | 0.752 | 0.664 | 0.633 |
| CN(CCO)CC[C@H](CSc1ccccc1)Nc1ccc(S(=O)(=O)NC(=O)c2ccc(N3CCC([C@@H](O)c4ccccc4-c4ccc(Cl)cc4)CC3)cc2)cc1S(=O)(=O)C(F)(F)F [AZD4320] + CC(=O)O[C@H]1C(=O)[C@@]2(C)[C@H]([C@H](OC(=O)c3ccccc3)[C@]3(O)C[C@H](OC(=O)[C@H](O)[C@@H](NC(=O)c4ccccc4)c4ccccc4)C(C)=C1C3(C)C)[C@]1(OC(C)=O)CO[C@@H]1C[C@@H]2O [Paclitaxel] (first compound max 1 µM, 7x7, partner max 3 µM) | 0.007 | 0.0111 | 0.0929 | 0.0026 | 0.153 | -0.0267 | 0.176 | 0.963 | 1 | 1 | 0.726 | 1 | 0.957 | 0.875 | 0.97 | 1 | 0.891 | 0.739 | 0.823 | 0.968 |
| C=CCn1c(=O)c2cnc(Nc3ccc(N4CCN(C)CC4)cc3)nc2n1-c1cccc(C(C)(C)O)n1 [AZD1775] + Nc1ccn([C@@H]2O[C@H](CO)[C@@H](O)C2(F)F)c(=O)n1 [Gemcitabine] (first compound max 1 µM, partner max 0.3 µM) | 0.0513 | 0.026 | 0.0085 | -0.0121 | 0.0719 | 0.0306 | -0.0678 | 0.839 | 0.952 | 1 | 0.344 | 0.548 | 0.384 | 0.684 | 0.94 | 0.998 | 0.317 | 0.616 | 0.576 | 0.568 |
| C=CCn1c(=O)c2cnc(Nc3ccc(N4CCN(C)CC4)cc3)nc2n1-c1cccc(C(C)(C)O)n1 [AZD1775] + CCc1c2c(nc3ccc(O)cc13)-c1cc3c(c(=O)n1C2)COC(=O)[C@]3(O)CC [SN-38] (first compound max 1 µM, partner max 0.3 µM) | -0.0071 | -0.0145 | -0.0946 | -0.0555 | 0.0364 | -0.0485 | -0.0583 | 0.771 | 0.985 | 1 | 0.318 | 0.546 | 0.542 | 0.825 | 0.924 | 0.989 | 0.464 | 0.586 | 0.587 | 0.875 |
| CN(CCO)CC[C@H](CSc1ccccc1)Nc1ccc(S(=O)(=O)NC(=O)c2ccc(N3CCC([C@@H](O)c4ccccc4-c4ccc(Cl)cc4)CC3)cc2)cc1S(=O)(=O)C(F)(F)F [AZD4320] + Nc1ccn([C@@H]2O[C@H](CO)[C@@H](O)C2(F)F)c(=O)n1 [Gemcitabine] (first compound max 1 µM, 7x7, partner max 0.3 µM) | -0.0261 | -0.0168 | -0.0009 | 0.0421 | 0.0195 | 0.0132 | 0.0559 | 0.855 | 1 | 1 | 0.382 | 1 | 0.627 | 0.911 | 0.943 | 1 | 0.511 | 0.378 | 0.52 | 0.875 |
